Test results as given in publication PMC4172381 (Bioorganic & medicinal chemistry, 2014).
Values belong to the compound of their own block, whether it stands above or below them.

Legend:
human sEH = molecular target: T1, human sEH (Homo sapiens, UniProt P34913); test: Fluorescent; type: biochemical; conditions: for drop in inhibition compared to compound 6: ratio of IC50 vs compound 6; for reduced inhibition compared to N,N,O-trimethylated oxyoxalamide derivatives: Conclusions, vs trimethylated derivatives (24, 26, 31); for improvement in inhibition in comparison with compound 27: ratio of IC50 vs compound 27
T1 sequence (P34913 1-555): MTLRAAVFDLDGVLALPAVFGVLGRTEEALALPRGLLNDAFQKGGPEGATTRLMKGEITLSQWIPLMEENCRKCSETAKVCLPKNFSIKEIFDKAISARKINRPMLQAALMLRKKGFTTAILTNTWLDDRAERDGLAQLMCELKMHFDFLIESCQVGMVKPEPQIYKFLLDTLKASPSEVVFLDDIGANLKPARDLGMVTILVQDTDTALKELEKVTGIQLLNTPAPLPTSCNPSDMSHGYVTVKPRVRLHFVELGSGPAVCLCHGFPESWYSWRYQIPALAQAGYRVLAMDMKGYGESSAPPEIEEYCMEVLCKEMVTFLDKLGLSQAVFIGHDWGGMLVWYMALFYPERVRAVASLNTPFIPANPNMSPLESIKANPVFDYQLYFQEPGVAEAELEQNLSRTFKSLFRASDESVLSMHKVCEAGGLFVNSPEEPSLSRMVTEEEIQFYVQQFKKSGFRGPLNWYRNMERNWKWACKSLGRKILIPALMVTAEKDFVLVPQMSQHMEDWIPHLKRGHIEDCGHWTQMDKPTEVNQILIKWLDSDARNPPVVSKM

[1] = Water solubility by light scattering; type: physicochemical; conditions: vs AUDA

Compound: O=C(NCCCc1ccccc1)C(=O)NOCc1ccccc1 [Compound 3, N^1-(Benzyloxy)-N^2-(3-phenylpropyl)oxalamide]
- inhibition of human sEH, result in words (human sEH): not effective for producing inhibition activity

Compound: O=C(NOCc1ccccc1)C(=O)NC12CC3CC(CC(C3)C1)C2 [Compound 4, N^1-(Adamant-1-yl)-N^2-(benzyloxy)oxalamide]
- inhibition of human sEH, result in words (human sEH): not effective for producing inhibition activity

- inhibition of human sEH, result in words (human sEH): moderate inhibition
Compound: O=C(NCC12CC3CC(CC(C3)C1)C2)C(=O)NOCc1ccccc1 [Compound 5, N^1-(Adamant-1-ylmethyl)-N^2-(benzyloxy)oxalamide]

- inhibition potency lower compared to AUDA (human sEH; ratio of IC50 vs AUDA): approximately 15 fold
- improvement in inhibition potency compared to compound 5 (human sEH; ratio of IC50 vs compound 5): 16 fold
Compound: O=C(NOCc1ccccc1)C(=O)NC1C2CC3CC(C2)CC1C3 (stereo not drawn) [Compound 6, N^1-(Adamant-2-yl)-N^2-(benzyloxy)oxalamide]

- inhibition of human sEH, result in words (human sEH): no inhibition
Compound: O=C(NOc1ccccc1)C(=O)NC1C2CC3CC(C2)CC1C3 (stereo not drawn) [Compound 7, N^1-(Adamant-2-yl)-N^2-(phenyloxy)oxalamide]

- drop in inhibition compared to compound 6 (human sEH): approximately 10 fold
- better inhibition than compound 11 (human sEH; ratio of IC50 vs compound 11): approximately 8 fold
Compound: O=C(NOCCCc1ccccc1)C(=O)NC1C2CC3CC(C2)CC1C3 (stereo not drawn) [Compound 12, N^1-(Adamant-2-yl)-N^2-(3-phenylpropyloxy)oxalamide]

- drop in inhibition compared to compound 6 (human sEH): approximately 60 fold
Compound: CN(OCc1ccccc1)C(=O)C(=O)NC1C2CC3CC(C2)CC1C3 (stereo not drawn) [Compound 13, N^1-(Adamant-2-yl)-N^2-(benzyloxy)-N^2-methyloxalamide]

- inhibition of human sEH, result in words (human sEH): no inhibition
Compound: O=C(CNC1C2CC3CC(C2)CC1C3)NOCc1ccccc1 (stereo not drawn) [Compound 16, N-(Benzyloxy)-2-(adamant-2-ylamino)acetamide]

- enhancement in inhibition compared to compound 17 (human sEH; ratio of IC50 vs compound 17): ≥ 3 fold
Compound: CONC(=O)C(=O)Nc1ccc(CNC(=O)C23CC4CC(CC(C4)C2)C3)cc1 [Compound 18, N-(4-(N^2-Methyloxyoxalamido)benzyl)adamantanecarboxamide]

- lowered inhibition compared to compound 18 (human sEH; ratio of IC50 vs compound 18): 1.5 fold
Compound: CC(C)(C)ONC(=O)C(=O)Nc1ccc(CNC(=O)C23CC4CC(CC(C4)C2)C3)cc1 [Compound 19, N-(4-(N^2-t-Butyloxyoxalamido)benzyl)adamantanecarboxamide]

- improved potency compared to O-methyl derivative (18) (human sEH; ratio of IC50 vs compound 18): 1.5 fold
Compound: CON(C)C(=O)C(=O)Nc1ccc(CNC(=O)C23CC4CC(CC(C4)C2)C3)cc1 [Compound 20, N-(4-(N^2-Methyl-N^2-(methyloxy)oxalamido)benzyl)adamantanecarboxamide]

- improved potency compared to O-methyl derivative (18) (human sEH; ratio of IC50 vs compound 18): 1.5 fold
Compound: CON(C)C(=O)C(=O)N(C)c1ccc(CNC(=O)C23CC4CC(CC(C4)C2)C3)cc1 [Compound 21, N-(4-(N^1-Methyl-N^2-methyl-N^2-(methyloxy)oxalamido)-benzyl)adamantanecarboxamide]

- inhibition of human sEH, result in words (human sEH): complete loss in inhibition
Compound: O=C(NOC1CCCCO1)C(=O)Nc1ccc(CNC(=O)C23CC4CC(CC(C4)C2)C3)cc1 (stereo not drawn) [Compound 22, N-(4-(N^2-(Tetrahydro-2H-pyran-2-yloxy)oxalamido)benzyl) adamantanecarboxamide]

- reduced inhibition compared to N,N,O-trimethylated oxyoxalamide derivatives (human sEH): ≤ 10 fold
- improvement in inhibition in comparison with compound 27 (human sEH): 2.5 fold
Compound: CONC(=O)C(=O)Nc1ccc(CNC(=O)NC23CC4CC(CC(C4)C2)C3)cc1 [Compound 28, 1-(4-(N^2-Methyloxyoxalamido)benzyl)-3-adamantylurea]

- reduced inhibition compared to N,N,O-trimethylated oxyoxalamide derivatives (human sEH): ≤ 10 fold
- improvement in inhibition in comparison with compound 27 (human sEH): 3 fold
Compound: CON(C)C(=O)C(=O)Nc1ccc(CNC(=O)NC23CC4CC(CC(C4)C2)C3)cc1 [Compound 30, 1-(4-(N^2-Methyl-N^2-(methyloxy)oxalamido)benzyl)-3-adamantylurea]

- improvement in inhibition in comparison with compound 27 (human sEH): 13 fold
- higher solubility in water than AUDA [1]: 10 fold
Compound: CON(C)C(=O)C(=O)N(C)c1ccc(CNC(=O)NC23CC4CC(CC(C4)C2)C3)cc1 [Compound 31, 1-(4-(N^1-Methyl-N^2-methyl-N^2-(methyloxy)oxalamido)-benzyl)-3-adamantylurea]
